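GI50 is the concentration that inhibits growth by half. TGI denotes the concentration required for complete inhibition of growth.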
Experiments:
Test in all cases: inhibition of tumour cell growth, NCI panel, 384-well format
[1] = system: SNB-75 CNS
[2] = system: U251 glioblastoma
[3] = system: BT-549 breast
[4] = system: IGROV1 ovarian
[5] = system: SF-539 CNS
[6] = system: HOP-92 NSCLC
[7] = system: K-562 leukemia
[8] = system: RPMI-8226 leukemia
[9] = system: NCI-H322M lung
[10] = system: CCRF-CEM leukemia
[11] = system: SW-620 colon
[12] = system: HOP-62 NSCLC
[13] = system: OVCAR-8 ovarian

Structure (SMILES): Cc1ccc2c(N)c(C(=O)N[C@H]3CCc4cc(N5CC6CCC(C5)N6)ccc4C3)sc2n1
- GI50 [1]: 0.219 µM
- TGI [1]: 0.682 µM
- GI50 [2]: 0.27 µM
- TGI [2]: 1.03 µM
- GI50 [3]: 0.154 µM
- TGI [3]: 0.423 µM
- GI50 [4]: 0.3 µM
- TGI [4]: 1.12 µM
- GI50 [5]: 0.207 µM
- TGI [5]: 0.663 µM
- GI50 [6]: 0.373 µM
- TGI [6]: 1.64 µM
- GI50 [7]: 0.0745 µM
- TGI [7]: 1.08 µM
- GI50 [8]: 0.0664 µM
- TGI [8]: 0.192 µM
- GI50 [9]: 0.208 µM
- TGI [9]: 0.66 µM
- GI50 [10]: 0.0423 µM
- TGI [10]: 0.133 µM
- GI50 [11]: 0.207 µM
- TGI [11]: 1.07 µM
- GI50 [12]: 0.148 µM
- TGI [12]: 0.624 µM
- GI50 [13]: 0.278 µM
- TGI [13]: 1.08 µM
